Data set [1] relates to guinea pig skin. Description: Cutaneous phototoxicity after systemic (I.P.) administration and UVA. The class given is in vivo, Guinea pigs. To be noted: 10 mg/kg I.P., graded 24 hours post light. How it is done:
(§1) HPD, DHE, hematoporphyrin and protoporphyrin were provided by Dr. Thomas J. Dougherty, Roswell Park Memorial Institute, Buffalo, NY. Hydroxyvinyldeuteroporphyrin was obtained from Porphyrin Products, Salt Lake City, UT.
Guinea pigs were treated systemically (I.P.) with the various porphyrins, each at a dose of 10 mg/kg. Animals were then irradiated with UVA (20 J/cm^2), either at 6 hours or 24 hours post drug administration. Erythema was graded at 24 hours post light treatment.

In a further data set the test system is skin cancers. The following applies: cited from earlier work.
In a further data set the test system is psoriasis. The following applies: oral methoxysalen plus long-wave ultraviolet light (PUVA); cited from earlier work.
The subject of data set [2] is guinea pig skin. Briefly: Cutaneous phototoxicity after intradermal administration and UVA (minimum phototoxic dose). It counts as in vivo. To be noted: intradermal 5-500 μg/0.1 ml; UVA 20 J/cm^2 6 hours post injection. As for the experimental part:
as §1
(§2) Drugs were administered intradermally at doses ranging from 5-500 μg/0.1 ml. Sites were then treated with UVA (20 J/cm^2) 6 hours post drug injection.

A further data set has as its system epidermal DNA synthesis. Briefly: Effect of topical DHE plus UVA on epidermal DNA synthesis in vivo. Details: species or system Mini-pigs. As for the experimental part:
The topical activity of DHE was evaluated in vivo in a mini-pig model.
Mini-pigs were obtained from Charles River Laboratories, Inc. (Wilmington, MA). Drug preparations were applied to small areas of dorsal skin (ca 1 inch square) according to the selected application schedules. Six hours following the last drug application, tritiated thymidine was injected into the drug treatment sites for autoradiographic assessment of epidermal proliferation as measured by epidermal labeling index. Weinstein & Van Scott, (1965) J. Invest. Derm. 44:413.
DHE was acid precipitated from a Photofrin II solution by adjusting the pH to 3.5. The precipitated DHA was washed extensively with distilled water until the pH of the filtrate reached 6.0. The DHE powder was vacuum dried, reconstituted in distilled water, and the pH adjusted to 7.0. Aqueous DHE was then mixed with isopropanol and Azone. […] This formulation was applied to selected areas of mini-pig skin approximately 6 hours before irradiation with UVA. Epidermal DNA synthesis was assayed as described above. At 0, 24, 48, and 72 hours post-irradiation, the animals were injected at the selected sites with isotopic precursors (tritiated thymidine). The animals were biopsied one hour after isotopic injection.

The subject of data set [3] is guinea pig skin. Briefly: Drug/UVA dosimetry with intradermal HPD and DHE. It counts as in vivo. As for the experimental part:
as §1, §2
Additional studies were done with intradermal HPD and DHE to study the drug/UVA dosimetry.

Another data set deals with malignant cells. To be noted: HPD enriched for DHE, administered systemically; cited from earlier work.

Where only a bound is given, the exact number is not on record here.

Data on 5 compounds can be found in US4753958A, “Photochemotherapy of epithelial diseases with derivatives of hematoporphyrins” (priority 1986, dated 1988).

For `CC1=C(CCC(=O)O)c2cc3[nH]c(cc4nc(cc5[nH]c(cc1n2)c(C)c5C(C)O)C(C)=C4C(C)O)c(C)c3CCC(=O)O` (stereo not shown) [hematoporphyrin], the erythema response entry in the data set with guinea pig skin [1] (UVA 20 J/cm^2 at 6 hours) is “mild response”.

As to `COc1c2occc2cc2ccc(=O)oc12` [methoxysalen], the “skin cancers in patients following PUVA” value with skin cancers is on record as “increased pattern of skin cancers”. In addition, the “clinical effectiveness in psoriasis” value in the data set on psoriasis was “relatively effective for the majority of patients”.

For dihematoporphyrin ether [DHE], the minimum phototoxic dose with guinea pig skin [2] was 5 µg. Further, the “time of maximum effect post light treatment” value in the data set with epidermal DNA synthesis (1% DHE topical plus UVA, autoradiographically and clinically) was found to be 72 h. In addition, the “inhibition of DNA synthesis compared to vehicle control plus UVA” value with epidermal DNA synthesis (1% DHE topical, 48% isopropanol, 4% Azone, 48% water, 5-10 applications plus UVA, FIG. 1) is recorded as “significant inhibition of DNA synthesis”. Further, the “erythema, UVA at 24 hours vs 6 hours post injection” value with guinea pig skin [3] (intradermal) was “more pronounced erythema”. Besides, the “UVA dose effective in producing erythema” value in the data set on guinea pig skin [3] (intradermal DHE 5 μg/cm^2) is 1 J/cm^2. Also, the “erythema response compared with HPD” value in the data set on guinea pig skin [3] (intradermal DHE 5 μg/cm^2, comparable treatments) is “slightly greater than with comparable treatments with HPD”. In addition, the “area of erythema, UVA at 24 hours vs 6 hours post injection” value in the data set with guinea pig skin [3] (intradermal, local drug diffusion from injection site) is “larger area of erythema”. Further, the erythema response result in the data set with guinea pig skin [1] (UVA 20 J/cm^2 at 6 hours) is given as “significant response”; in the data set on guinea pig skin [1] (UVA 20 J/cm^2 at 24 hours, compared with 6 hours for HPD and DHE) it was “greater”. Further, in the data set with malignant cells, the “phototoxicity toward malignant cells” value is “phototoxic properties toward malignant cells”.

For Hydroxyvinyldeuteroporphyrin, in the data set on guinea pig skin [2], the minimum phototoxic dose was above 500 µg. Moreover, the erythema response result in the data set with guinea pig skin [1] (UVA 20 J/cm^2 at 6 hours) is recorded as “No response”.

Regarding `C=CC1=C(C)c2cc3[nH]c(cc4nc(cc5[nH]c(cc1n2)c(C)c5CCC(=O)O)C(CCC(=O)O)=C4C)c(C)c3C=C` [protoporphyrin], the erythema response entry with guinea pig skin [1] (UVA 20 J/cm^2 at 6 hours) was “No response”.
